Results on one compound are retold here after patent US9649313B2, “Use of ITK inhibitors for the treatment of cancer” (The University of North Carolina at Chapel Hill, priority 2012, dated 2017).

Each structure is given as a SMILES string.

Series [1] has as its system ERK and AKT activation status in VMM 39 cells. The series can be described thus: western blot of ERK and AKT activation. The class given is cell-based, Human. The settings on record: concentrations as high as 50 nM, 3 days. The procedure: (§1) FIG. 9. Western blots of phospho-ERK and phospho-AKT.
(§2) To investigate the impact of ITK inhibition by BI 10N on the ERK and AKT signaling pathways, which are frequently misregulated in melanoma, the ITKHI melanoma cell lines (VMM 39 and RPMI 8322) were grown in the presence of increasing BI 10N concentrations. Western blot analysis was performed on whole cell lysates from these cells using antibodies against ERK, pERK^Thr202/Tyr204, AKT, and pAKT^Ser473.
For orientation: Immunoblotting shows a protein as a band on a membrane.

Series [2] relates to ERK and AKT activation status in RPMI 8322 cells. The series is described as follows: western blot of ERK and AKT activation. It counts as cell-based, Human. The settings on record: concentrations as high as 50 nM, 3 days. The procedure: as §1, §2
The conditions of series [3]: Riether et al., 2009; cited from earlier work.
The test system of series [4] is RPMI 8322 (ITKHI) melanoma cell line. The series can be described thus: single cell motility assay. It counts as cell-based, Human. The settings on record: 10-25 nM. The text has this:
(§3) FIG. 4A-4E. Effects of ITK knockdown on proliferation and motility of melanoma cells. FIG. 4A) Western of lysates of VMM 39 containing each of the four shRNA constructs using rabbit monoclonal anti ITK (Y401). FIG. 4B) The four shRNA lentiviral constructs were used to transduce three melanoma cell lines, PMWK (ITKLO), VMM 39 (ITKHI), and RPMI 8322 (ITKHI). 50,000 cells were placed into each well of a 6 well plate, which was then counted 3, 5, and 6, or 7 days after plating to assess the proliferation rates of the different cell lines. FIG. 4C) Single Cell Motility assays were performed on three different melanoma cell lines, PMWK, VMM 39, and RPMI 8322. Each melanoma cell line was transduced with the four shRNA lentiviral constructs producing a total of 12 cell lines. 10,000 cells were plated on fibronectin coated glass bottom dishes. Pictures were taken once every 40 minutes for 16 hours. FIG. 4D) Cell cycle analysis of PMWK, VMM 39, and RPMI 8322 cells that have been transduced with various shRNAs. Cells were harvested after 3 hours of incubation with 5-ethynyl-2′-deoxyuridine (EdU). EdU incorporation and DNA content with FxCycle Violet were analyzed using flow cytometry. Illustrated in this panel are the percentages of cells in G0/G1 (low DNA and EdU content), S (high EdU and low-to-medium DNA content), and G2/M (Low EdU and high DNA content). FIG. 4E) Single-cell motility analysis of PMWK, VMM 39, and RPMI 8322 that have been transduced with various shRNAs. At least 50 cells were tracked for each cell line and the average motility rate was determined. Shown with asterisks are the shRNA-transduced melanoma cell lines with significant impairment in motility (P<0.001 one-way ANOVA following Bonferroni adjustments for multiple comparisons).
(§4) FIG. 5A-5C. Effects of BI 10N inhibitor on proliferation and motility of melanoma cells. FIG. 5A) Cell motility assays were performed as described in FIG. 4A-4E; however, the inhibitor BI 10N was added to the media to decrease ITK kinase activity in parental cell lines instead of using the shRNA ITK knockdown cell lines. BI 10N was added to the media 24 hours prior to the start of the motility assay and the VivaView camera system was used to image cellular motility of the melanoma cells as described previously. […] Cells were trypsinized and counted using the Invitrogen Countess. […] The cells were counted with the Invitrogen Countess at 3, 5, and 6 or 7 days after plating to assess the proliferation rates of the different cell lines in the presence of BI 10N. […] Following 3 days of BI 10N treatment, the cells were incubated with EdU for 3 hours and were subsequently assessed for 5-ethynyl-2′-deoxyuridine (EdU) incorporation rate and DNA content with FxCycle Violet. […]

Series [5] has as its system VMM 39 (ITKHI) melanoma cell line. The series can be described thus: single cell motility assay. It counts as cell-based, Human. The settings on record: VMM39; 10-25 nM.
Text: as §3, §4

The target in series [6] is T1, LCK (Homo sapiens, UniProt P06239).
T1 construct: purchased Carna Biosciences
T1 sequence (P06239 whole entry): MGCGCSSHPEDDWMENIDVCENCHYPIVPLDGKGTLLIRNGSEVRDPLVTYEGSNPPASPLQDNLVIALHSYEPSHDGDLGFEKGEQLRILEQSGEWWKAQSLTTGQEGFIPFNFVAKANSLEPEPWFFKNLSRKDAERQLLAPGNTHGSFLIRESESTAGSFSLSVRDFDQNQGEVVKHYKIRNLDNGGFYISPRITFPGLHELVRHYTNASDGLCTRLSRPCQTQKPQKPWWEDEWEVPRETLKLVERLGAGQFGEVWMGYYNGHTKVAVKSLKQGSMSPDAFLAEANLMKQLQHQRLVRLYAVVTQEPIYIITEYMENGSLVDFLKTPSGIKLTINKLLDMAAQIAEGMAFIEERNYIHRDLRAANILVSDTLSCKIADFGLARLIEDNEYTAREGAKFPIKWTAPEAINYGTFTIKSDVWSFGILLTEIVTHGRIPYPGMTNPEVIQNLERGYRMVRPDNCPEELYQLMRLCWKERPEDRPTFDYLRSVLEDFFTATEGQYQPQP
The series is described as follows: cell-free kinase assay. It counts as biochemical. The text has this:
(§5) We investigated the potency and selectivity of BI 10N against 56 kinases using a cell-free assay (Table 8A). […] The selectivity of this inhibitor was investigated by testing the potency of the inhibitor at two concentrations with 53 kinases by Carna Biosciences (MA) (Table 2).

In series [7] the target is T2, FGFR1 (Homo sapiens, UniProt P11362).
T2 construct: purchased Carna Biosciences
T2 sequence (P11362 22-822): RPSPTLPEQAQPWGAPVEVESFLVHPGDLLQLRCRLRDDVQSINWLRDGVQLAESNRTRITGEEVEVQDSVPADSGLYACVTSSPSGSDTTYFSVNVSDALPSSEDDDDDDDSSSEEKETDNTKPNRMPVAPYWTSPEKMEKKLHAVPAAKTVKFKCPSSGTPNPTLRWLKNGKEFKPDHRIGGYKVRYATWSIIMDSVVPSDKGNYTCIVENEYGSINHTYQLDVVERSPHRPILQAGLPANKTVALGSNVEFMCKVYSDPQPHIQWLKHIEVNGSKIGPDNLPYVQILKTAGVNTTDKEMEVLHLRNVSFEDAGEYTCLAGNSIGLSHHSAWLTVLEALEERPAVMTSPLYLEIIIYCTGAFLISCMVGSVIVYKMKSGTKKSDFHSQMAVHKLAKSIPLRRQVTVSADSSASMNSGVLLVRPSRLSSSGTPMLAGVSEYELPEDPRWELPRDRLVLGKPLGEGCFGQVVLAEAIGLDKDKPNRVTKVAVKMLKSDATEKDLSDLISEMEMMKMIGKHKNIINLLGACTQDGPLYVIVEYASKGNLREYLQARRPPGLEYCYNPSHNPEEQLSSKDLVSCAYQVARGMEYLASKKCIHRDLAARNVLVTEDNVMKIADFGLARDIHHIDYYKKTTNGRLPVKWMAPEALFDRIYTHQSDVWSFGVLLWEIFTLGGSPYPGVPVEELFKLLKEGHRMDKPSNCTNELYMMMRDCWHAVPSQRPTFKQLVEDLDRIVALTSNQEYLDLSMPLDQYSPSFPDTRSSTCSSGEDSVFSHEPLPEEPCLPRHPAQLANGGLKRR
The series can be described thus: cell-free kinase assay. It counts as biochemical.
Text: as §5

Series [8] has as its target T3, FYN (Homo sapiens, UniProt P06241).
T3 construct: purchased Carna Biosciences
The series is described as follows: cell-free kinase assay. It counts as biochemical. The settings on record: Table 2, by Carna Biosciences.
Text: as §5

For series [9], the target named is T4, TRKC (Homo sapiens, UniProt Q16288).
T4 construct: purchased Carna Biosciences
T4 sequence (Q16288 32-839): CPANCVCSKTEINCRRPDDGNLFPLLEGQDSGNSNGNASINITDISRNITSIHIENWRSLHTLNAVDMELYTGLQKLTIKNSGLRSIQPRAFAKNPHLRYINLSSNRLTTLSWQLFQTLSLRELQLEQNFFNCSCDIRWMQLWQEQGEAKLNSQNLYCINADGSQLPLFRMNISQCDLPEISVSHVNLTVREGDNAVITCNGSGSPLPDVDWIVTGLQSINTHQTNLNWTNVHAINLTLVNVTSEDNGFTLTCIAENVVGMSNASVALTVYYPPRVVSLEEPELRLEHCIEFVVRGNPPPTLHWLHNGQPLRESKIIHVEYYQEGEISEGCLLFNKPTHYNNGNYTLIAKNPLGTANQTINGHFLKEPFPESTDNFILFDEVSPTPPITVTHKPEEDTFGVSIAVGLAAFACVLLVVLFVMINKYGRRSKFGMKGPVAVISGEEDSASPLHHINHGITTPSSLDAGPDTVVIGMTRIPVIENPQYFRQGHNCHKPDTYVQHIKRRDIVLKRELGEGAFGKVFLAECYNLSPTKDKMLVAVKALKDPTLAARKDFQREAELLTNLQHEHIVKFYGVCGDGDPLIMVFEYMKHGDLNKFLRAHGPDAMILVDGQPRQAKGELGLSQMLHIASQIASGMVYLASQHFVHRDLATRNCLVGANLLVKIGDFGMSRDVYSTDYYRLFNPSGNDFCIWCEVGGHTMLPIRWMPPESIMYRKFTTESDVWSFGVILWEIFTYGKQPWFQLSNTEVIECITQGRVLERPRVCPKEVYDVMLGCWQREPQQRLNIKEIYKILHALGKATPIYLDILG
The series is described as follows: cell-free kinase assay. The class given is biochemical.
Text: as §5

The target of series [10] is T5, IGF1R (Homo sapiens, UniProt P08069).
T5 construct: purchased Carna Biosciences
T5 sequence (P08069 31-1367): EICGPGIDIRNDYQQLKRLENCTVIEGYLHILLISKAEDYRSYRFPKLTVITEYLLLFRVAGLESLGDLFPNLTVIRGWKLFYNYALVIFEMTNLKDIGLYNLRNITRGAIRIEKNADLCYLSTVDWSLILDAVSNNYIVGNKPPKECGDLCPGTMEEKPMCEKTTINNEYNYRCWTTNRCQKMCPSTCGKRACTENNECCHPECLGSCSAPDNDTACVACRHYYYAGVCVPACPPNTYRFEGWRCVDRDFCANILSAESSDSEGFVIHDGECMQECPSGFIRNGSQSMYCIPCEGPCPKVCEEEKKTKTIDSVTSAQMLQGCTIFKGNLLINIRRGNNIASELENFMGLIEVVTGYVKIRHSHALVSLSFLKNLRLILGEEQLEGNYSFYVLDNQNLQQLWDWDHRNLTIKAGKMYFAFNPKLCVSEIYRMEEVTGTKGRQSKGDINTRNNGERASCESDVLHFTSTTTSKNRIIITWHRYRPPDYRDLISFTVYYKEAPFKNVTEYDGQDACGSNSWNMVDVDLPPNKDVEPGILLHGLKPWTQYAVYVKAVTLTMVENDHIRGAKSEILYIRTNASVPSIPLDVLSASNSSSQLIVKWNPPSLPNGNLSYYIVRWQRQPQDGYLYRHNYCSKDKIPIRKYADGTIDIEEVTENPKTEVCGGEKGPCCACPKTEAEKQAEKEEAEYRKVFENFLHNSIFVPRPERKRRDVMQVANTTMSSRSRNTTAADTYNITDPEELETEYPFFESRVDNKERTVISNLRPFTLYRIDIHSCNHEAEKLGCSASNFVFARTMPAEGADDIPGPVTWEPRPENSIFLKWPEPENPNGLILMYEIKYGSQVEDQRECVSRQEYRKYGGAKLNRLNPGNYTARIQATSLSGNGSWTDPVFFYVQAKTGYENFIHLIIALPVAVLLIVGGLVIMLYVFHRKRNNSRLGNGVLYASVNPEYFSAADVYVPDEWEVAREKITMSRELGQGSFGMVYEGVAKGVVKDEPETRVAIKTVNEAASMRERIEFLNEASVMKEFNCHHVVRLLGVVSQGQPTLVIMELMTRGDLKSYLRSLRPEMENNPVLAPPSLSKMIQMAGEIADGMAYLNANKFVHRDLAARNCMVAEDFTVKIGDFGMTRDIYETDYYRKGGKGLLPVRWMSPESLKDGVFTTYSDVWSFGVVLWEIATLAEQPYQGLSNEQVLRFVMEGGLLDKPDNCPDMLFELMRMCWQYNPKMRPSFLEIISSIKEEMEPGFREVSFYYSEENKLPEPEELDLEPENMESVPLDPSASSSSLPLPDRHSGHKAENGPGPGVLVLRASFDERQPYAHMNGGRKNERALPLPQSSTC
The series can be described thus: cell-free kinase assay. The class given is biochemical.
Text: as §5

Series [11] has as its target T6, TRKA (Homo sapiens, UniProt P04629).
T6 construct: purchased Carna Biosciences
The series is described as follows: cell-free kinase assay. It counts as biochemical.
Text: as §5

The test system of series [12] is 56 protein kinases. The series is described as follows: cell-free kinase selectivity panel. The class given is biochemical. The settings on record: versus 51 of the 56 protein kinases tested. The text has this:
To assess the effect of pharmacologic inhibition of ITK activity in melanoma preclinical models, we used BI 10N, which has been previously shown to inhibit ITK's phosphoryl-transfer activities (Kashem et al., 2007; Riether et al., 2009). We investigated the potency and selectivity of BI 10N against 56 kinases using a cell-free assay (Table 8A).

T6 sequence (P04629 33-796): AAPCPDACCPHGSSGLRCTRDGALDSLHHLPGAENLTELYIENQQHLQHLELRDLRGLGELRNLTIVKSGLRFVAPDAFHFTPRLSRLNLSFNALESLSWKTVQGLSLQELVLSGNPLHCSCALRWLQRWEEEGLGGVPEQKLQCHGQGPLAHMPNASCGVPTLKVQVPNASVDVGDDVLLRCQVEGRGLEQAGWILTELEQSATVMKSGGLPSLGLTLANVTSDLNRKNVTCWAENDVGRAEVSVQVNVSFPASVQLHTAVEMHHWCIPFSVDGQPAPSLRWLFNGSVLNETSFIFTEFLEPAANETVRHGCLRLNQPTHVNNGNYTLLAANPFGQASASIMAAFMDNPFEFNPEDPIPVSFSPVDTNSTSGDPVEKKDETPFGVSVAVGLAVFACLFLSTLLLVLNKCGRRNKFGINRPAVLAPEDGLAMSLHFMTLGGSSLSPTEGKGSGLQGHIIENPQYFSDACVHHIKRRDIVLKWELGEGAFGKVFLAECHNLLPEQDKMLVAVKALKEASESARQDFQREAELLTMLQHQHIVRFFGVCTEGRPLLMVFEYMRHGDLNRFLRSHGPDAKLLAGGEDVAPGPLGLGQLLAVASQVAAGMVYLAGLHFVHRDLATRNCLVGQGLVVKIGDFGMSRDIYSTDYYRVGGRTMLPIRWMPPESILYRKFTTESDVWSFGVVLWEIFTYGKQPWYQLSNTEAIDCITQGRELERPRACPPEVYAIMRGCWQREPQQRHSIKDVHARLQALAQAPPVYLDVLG
T3 sequence (P06241 whole entry): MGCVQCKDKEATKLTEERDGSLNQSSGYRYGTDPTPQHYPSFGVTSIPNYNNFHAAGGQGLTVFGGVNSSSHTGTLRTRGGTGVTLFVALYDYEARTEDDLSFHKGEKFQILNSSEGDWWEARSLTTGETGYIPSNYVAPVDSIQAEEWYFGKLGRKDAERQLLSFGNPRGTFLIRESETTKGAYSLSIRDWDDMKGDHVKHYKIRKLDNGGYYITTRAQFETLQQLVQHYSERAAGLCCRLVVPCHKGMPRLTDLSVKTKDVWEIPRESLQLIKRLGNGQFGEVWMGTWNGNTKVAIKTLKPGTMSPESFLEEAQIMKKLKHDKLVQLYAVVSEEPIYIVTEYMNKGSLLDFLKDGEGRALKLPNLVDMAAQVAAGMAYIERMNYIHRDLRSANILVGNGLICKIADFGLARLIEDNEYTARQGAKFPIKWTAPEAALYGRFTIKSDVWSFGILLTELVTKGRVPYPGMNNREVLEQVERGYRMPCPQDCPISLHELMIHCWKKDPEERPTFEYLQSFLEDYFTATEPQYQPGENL

As for `CC(C)C(C)CNCc1ccc2c(c1)[nH]/c(=N\C(=O)c1ccc(C3=CN=NC3)s1)n2CC(C)(C)O` (stereo not drawn) [BI 10N], the “activation status of ERK and AKT” value in [1] and in series [2] was “No significant effects” in each case. Besides, in series [3], the “F value (bioavailable in mice)” value was 21%. Besides, the decrease in migration entry in series [4] and in series [5] was “about 50%” each time. The half-inhibitory concentration (IC50) is 10.6 nM in series [6] (Table 2, by Carna Biosciences); 59.7 nM in series [7] (Table 2, by Carna Biosciences); 24.2 nM in series [8]; 1.58 nM in [9]; 886 nM in series [10] (Table 2, by Carna Biosciences); 0.828 nM in series [11] (TRKA, 1 mM ATP, Km ATP 65 μM). Further, the IC50 is below 0.5 nM in series [11] (TRKA, ATP at approximately the Km for ATP, more potent than can be measured) and 0.459 nM in series [11] (TRKA, Table 2, by Carna Biosciences). The inhibition at 0.2 µM in series [6] (single inhibitor concentration) was 96.7%; in series [7] (single inhibitor concentration), 80.2%; in series [10] (single inhibitor concentration), 19%; in series [11] (TRKA, single inhibitor concentration), 106%. For the same compound, in series [9], the “selectivity for ITK over TRKC” value is listed as “about 10 fold”. For the same compound, in series [11], the “selectivity for ITK over TRKA” value is listed as “about 10 fold”. In addition, the mode of inhibition entry in [11] (TRKA) is listed as “time-dependent inhibitor”. The “selectivity for ITK over other protein kinases” value in series [12] is recorded as “at least 1000 fold”.

By IC50 is commonly meant the concentration at which inhibition is half-maximal. A high value points to lower potency. As usually defined, the inhibition is the drop in the measured response relative to a control, in per cent.
